In patent US20090191636A1, “Method of Producing Transgenic Graminaceous Cells and Plants” (priority 2006, published 2009):

What was measured:
[1] = system: wheat mature dried grain of the cultivar Bobwhite; assay: Effect of D-amino acids on germination of wheat mature dried grain (Bobwhite); type: in vivo, Triticum aestivum; settings: n = 15
Protocol: (§1) A range of concentrations of the D-amino acids D-serine and D-alanine were tested for effects on wheat regeneration and germination from embryos derived from mature dried grain of the cultivar Bobwhite.

[2] = system: wheat mature dried grain of the cultivar Ventura; assay: Effect of D-amino acids on germination of wheat mature dried grain (Ventura); type: in vivo; settings: n = 15
Protocol: [Worded in the source for another variant; this variant is reported under the same test.] as §1

[3] = system: wheat embryos derived from mature dried grain of the cultivar Ventura; assay: Effect of D-amino acids on regeneration of wheat from embryos of mature dried grain (Ventura); type: cell-based; settings: n = 20
[4] = system: wheat embryos derived from mature dried grain of the cultivar Bobwhite; assay: Effect of D-amino acids on regeneration of wheat from embryos of mature dried grain (Bobwhite); type: cell-based, Triticum aestivum; settings: for proportion (%) of explants regenerating after 3 weeks, Average / proportion (%) of explants regenerating after 3 weeks, Experiment number 1 / proportion (%) of explants regenerating after 3 weeks, Experiment number 2 / proportion (%) of explants regenerating after 3 weeks, Experiment number 3: n = 20
Protocol: as §1

Compound: N[C@H](CO)C(=O)O [D-serine]
- proportion (%) of explants germinated after 1 week, Average ([1]; 0.5 mM): 62%
- proportion (%) of explants germinated after 1 week, Experiment Number 1 ([1]; 0.5 mM): 35%
- proportion (%) of explants germinated after 1 week, Experiment Number 2 ([1]; 0.5 mM): 70%
- proportion (%) of explants germinated after 1 week, Experiment Number 3 ([1]; 0.5 mM): 80%
- proportion (%) of explants germinated after 1 week, Average ([1]; 1 mM): 57%
- proportion (%) of explants germinated after 1 week, Experiment Number 1 ([1]; 1 mM): 30%
- proportion (%) of explants germinated after 1 week, Experiment Number 2 ([1]; 1 mM): 80%
- proportion (%) of explants germinated after 1 week, Experiment Number 3 ([1]; 1 mM): 60%
- proportion (%) of explants germinated after 1 week, Average ([1]; 5 mM): 38%
- proportion (%) of explants germinated after 1 week, Experiment Number 1 ([1]; 5 mM): 20%
- proportion (%) of explants germinated after 1 week, Experiment Number 2 ([1]; 5 mM): 70%
- proportion (%) of explants germinated after 1 week, Experiment Number 3 ([1]; 5 mM): 25%
- proportion (%) of explants germinated after 1 week, Average ([1]; 7.5 mM): 32%
- proportion (%) of explants germinated after 1 week, Experiment Number 1 ([1]; 7.5 mM): 10%
- proportion (%) of explants germinated after 1 week, Experiment Number 2 ([1]; 7.5 mM): 60%
- proportion (%) of explants germinated after 1 week, Experiment Number 3 ([1]; 7.5 mM): 25%
- proportion (%) of explants germinated after 1 week, Average ([1]; 10 mM): 18%
- proportion (%) of explants germinated after 1 week, Experiment Number 1 ([1]; 10 mM): 0%
- proportion (%) of explants germinated after 1 week, Experiment Number 2 ([1]; 10 mM): 35%
- proportion (%) of explants germinated after 1 week, Experiment Number 3 ([1]; 10 mM): 20%
- proportion (%) of explants germinated after 1 week, Average ([1]; 30 mM): 0%
- proportion (%) of explants germinated after 1 week, Experiment Number 1 ([1]; 30 mM): 0%
- proportion (%) of explants germinated after 1 week, Experiment Number 2 ([1]; 30 mM): 0%
- proportion (%) of explants germinated after 1 week, Experiment Number 3 ([1]; 30 mM): 0%
- germination: proportion (%) of explants regenerating after 1 week, Average ([2]; 0.5 mM): 70%
- germination: proportion (%) of explants regenerating after 1 week, Experiment number 1 ([2]; 0.5 mM): 65%
- germination: proportion (%) of explants regenerating after 1 week, Experiment number 2 ([2]; 0.5 mM): 60%
- germination: proportion (%) of explants regenerating after 1 week, Experiment number 3 ([2]; 0.5 mM): 85%
- germination: proportion (%) of explants regenerating after 1 week, Average ([2]; 1 mM): 68%
- germination: proportion (%) of explants regenerating after 1 week, Experiment number 1 ([2]; 1 mM): 70%
- germination: proportion (%) of explants regenerating after 1 week, Experiment number 2 ([2]; 1 mM): 70%
- germination: proportion (%) of explants regenerating after 1 week, Experiment number 3 ([2]; 1 mM): 65%
- germination: proportion (%) of explants regenerating after 1 week, Average ([2]; 5 mM): 53%
- germination: proportion (%) of explants regenerating after 1 week, Experiment number 1 ([2]; 5 mM): 60%
- germination: proportion (%) of explants regenerating after 1 week, Experiment number 2 ([2]; 5 mM): 45%
- germination: proportion (%) of explants regenerating after 1 week, Average ([2]; 7.5 mM): 23%
- germination: proportion (%) of explants regenerating after 1 week, Experiment number 1 ([2]; 7.5 mM): 15%
- germination: proportion (%) of explants regenerating after 1 week, Experiment number 2 ([2]; 7.5 mM): 20%
- germination: proportion (%) of explants regenerating after 1 week, Experiment number 3 ([2]; 7.5 mM): 35%
- germination: proportion (%) of explants regenerating after 1 week, Average ([2]; 10 mM): 43%
- germination: proportion (%) of explants regenerating after 1 week, Experiment number 2 ([2]; 10 mM): 30%
- germination: proportion (%) of explants regenerating after 1 week, Experiment number 3 ([2]; 10 mM): 55%
- germination: proportion (%) of explants regenerating after 1 week, Average ([2]; 30 mM): 0%
- germination: proportion (%) of explants regenerating after 1 week, Experiment number 1 ([2]; 30 mM): 0%
- germination: proportion (%) of explants regenerating after 1 week, Experiment number 2 ([2]; 30 mM): 0%
- germination: proportion (%) of explants regenerating after 1 week, Experiment number 3 ([2]; 30 mM): 0%
- proportion (%) of explants regenerating after 3 weeks, Average ([3]; 0.5 mM): 10%
- proportion (%) of explants regenerating after 3 weeks, Experiment number 1 ([3]; 0.5 mM): 10%
- proportion (%) of explants regenerating after 3 weeks, Experiment number 2 ([3]; 0.5 mM): 15%
- proportion (%) of explants regenerating after 3 weeks, Experiment number 3 ([3]; 0.5 mM): 5%
- proportion (%) of explants regenerating after 3 weeks, Average ([3]; 1 mM): 7%
- proportion (%) of explants regenerating after 3 weeks, Experiment number 1 ([3]; 1 mM): 10%
- proportion (%) of explants regenerating after 3 weeks, Experiment number 2 ([3]; 1 mM): 5%
- proportion (%) of explants regenerating after 3 weeks, Experiment number 3 ([3]; 1 mM): 5%
- proportion (%) of explants regenerating after 3 weeks, Average ([3]; 5 mM): 5%
- proportion (%) of explants regenerating after 3 weeks, Experiment number 1 ([3]; 5 mM): 5%
- proportion (%) of explants regenerating after 3 weeks, Experiment number 2 ([3]; 5 mM): 5%
- proportion (%) of explants regenerating after 3 weeks, Average ([3]; 7.5 mM): 0%
- proportion (%) of explants regenerating after 3 weeks, Experiment number 1 ([3]; 7.5 mM): 0%
- proportion (%) of explants regenerating after 3 weeks, Experiment number 2 ([3]; 7.5 mM): 0%
- proportion (%) of explants regenerating after 3 weeks, Experiment number 3 ([3]; 7.5 mM): 0%
- proportion (%) of explants regenerating after 3 weeks, Average ([3]; 10 mM): 0%
- proportion (%) of explants regenerating after 3 weeks, Experiment number 1 ([3]; 10 mM): 0%
- proportion (%) of explants regenerating after 3 weeks, Experiment number 2 ([3]; 10 mM): 0%
- proportion (%) of explants regenerating after 3 weeks, Experiment number 3 ([3]; 10 mM): 0%
- proportion (%) of explants regenerating after 3 weeks, Average ([3]; 30 mM): 0%
- proportion (%) of explants regenerating after 3 weeks, Experiment number 1 ([3]; 30 mM): 0%
- proportion (%) of explants regenerating after 3 weeks, Experiment number 2 ([3]; 30 mM): 0%
- proportion (%) of explants regenerating after 3 weeks, Experiment number 3 ([3]; 30 mM): 0%
- proportion (%) of explants regenerating after 3 weeks, Average ([4]; 0.5 mM): 28%
- proportion (%) of explants regenerating after 3 weeks, Experiment number 1 ([4]; 0.5 mM): 45%
- proportion (%) of explants regenerating after 3 weeks, Experiment number 2 ([4]; 0.5 mM): 33%
- proportion (%) of explants regenerating after 3 weeks, Experiment number 3 ([4]; 0.5 mM): 5%
- proportion (%) of explants regenerating after 3 weeks, Average ([4]; 1 mM): 23%
- proportion (%) of explants regenerating after 3 weeks, Experiment number 1 ([4]; 1 mM): 30%
- proportion (%) of explants regenerating after 3 weeks, Experiment number 2 ([4]; 1 mM): 33%
- proportion (%) of explants regenerating after 3 weeks, Experiment number 3 ([4]; 1 mM): 5%
- proportion (%) of explants regenerating after 3 weeks, Average ([4]; 5 mM): 8%
- proportion (%) of explants regenerating after 3 weeks, Experiment number 1 ([4]; 5 mM): 10%
- proportion (%) of explants regenerating after 3 weeks, Experiment number 2 ([4]; 5 mM): 10%
- proportion (%) of explants regenerating after 3 weeks, Experiment number 3 ([4]; 5 mM): 5%
- proportion (%) of explants regenerating after 3 weeks, Average ([4]; 7.5 mM): 3%
- proportion (%) of explants regenerating after 3 weeks, Experiment number 1 ([4]; 7.5 mM): 0%
- proportion (%) of explants regenerating after 3 weeks, Experiment number 2 ([4]; 7.5 mM): 5%
- proportion (%) of explants regenerating after 3 weeks, Experiment number 3 ([4]; 7.5 mM): 5%
- proportion (%) of explants regenerating after 3 weeks, Average ([4]; 10 mM): 0%
- proportion (%) of explants regenerating after 3 weeks, Experiment number 1 ([4]; 10 mM): 0%
- proportion (%) of explants regenerating after 3 weeks, Experiment number 2 ([4]; 10 mM): 0%
- proportion (%) of explants regenerating after 3 weeks, Experiment number 3 ([4]; 10 mM): 0%
- proportion (%) of explants regenerating after 3 weeks, Average ([4]; 30 mM): 0%
- proportion (%) of explants regenerating after 3 weeks, Experiment number 1 ([4]; 30 mM): 0%
- proportion (%) of explants regenerating after 3 weeks, Experiment number 2 ([4]; 30 mM): 0%
- proportion (%) of explants regenerating after 3 weeks, Experiment number 3 ([4]; 30 mM): 0%
- levels that reduced the regeneration and germination of wheat plants ([4]; regeneration and germination (Tables 4 and 5)): greater than 7.5 mM
